The results in this text go back to patent EP4653444A1, “FUSED TRICYCLIC COMPOUND AS KINASE INHIBITOR” (Hangzhou Innogate Pharma Co., Ltd., priority 2023, dated 2024).

What is called AUC(0-t) is exposure summed from dosing to a finite time, without extrapolation to infinity. In general, Cmax refers to the peak of the concentration-time curve. What is called Tmax is the time at which the peak concentration occurs. Broadly, the half-life is how long it takes for the measured level to halve. What is called IC50 is the midpoint of a concentration-inhibition curve.

One series can be described thus: in vivo. Conditions: rat, po, 3 mg/kg.
A further series has as its target T1, FLT3 (Homo sapiens, UniProt P36888).
T1 sequence (P36888 27-993): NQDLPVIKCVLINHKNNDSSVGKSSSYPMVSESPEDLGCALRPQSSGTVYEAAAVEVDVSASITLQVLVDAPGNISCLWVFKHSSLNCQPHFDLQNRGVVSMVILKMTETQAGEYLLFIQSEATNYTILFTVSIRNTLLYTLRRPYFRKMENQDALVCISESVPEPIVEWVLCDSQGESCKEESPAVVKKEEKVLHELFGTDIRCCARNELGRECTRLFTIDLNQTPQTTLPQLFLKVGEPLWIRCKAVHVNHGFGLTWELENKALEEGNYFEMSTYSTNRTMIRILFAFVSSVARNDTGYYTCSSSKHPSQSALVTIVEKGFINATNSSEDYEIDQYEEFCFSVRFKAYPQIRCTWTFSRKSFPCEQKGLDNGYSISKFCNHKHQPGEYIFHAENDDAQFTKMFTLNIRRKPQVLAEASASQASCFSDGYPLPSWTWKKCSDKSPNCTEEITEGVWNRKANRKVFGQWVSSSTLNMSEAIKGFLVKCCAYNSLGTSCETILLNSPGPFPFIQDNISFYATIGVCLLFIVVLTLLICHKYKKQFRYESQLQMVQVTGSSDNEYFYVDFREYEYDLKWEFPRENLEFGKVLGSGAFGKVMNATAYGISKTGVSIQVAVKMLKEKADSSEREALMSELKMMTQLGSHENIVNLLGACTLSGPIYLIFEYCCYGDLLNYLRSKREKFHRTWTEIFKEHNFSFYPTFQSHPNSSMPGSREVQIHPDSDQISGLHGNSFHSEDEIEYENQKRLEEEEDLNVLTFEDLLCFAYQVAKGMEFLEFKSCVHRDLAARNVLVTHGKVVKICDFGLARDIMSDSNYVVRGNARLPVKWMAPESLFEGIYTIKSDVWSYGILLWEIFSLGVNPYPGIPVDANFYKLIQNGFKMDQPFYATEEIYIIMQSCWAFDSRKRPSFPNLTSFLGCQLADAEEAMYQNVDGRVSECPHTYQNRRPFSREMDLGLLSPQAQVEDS
Put plainly: FLT3 kinase activity inhibition assay (Mobility shift assay). The series is classed as biochemical. As for the experimental part: Testing compound inhibitory activity against FLT3 and AXL kinases using Mobility shift assay. Compounds were dissolved in 100% DMSO to prepare 10 mM stock solutions. Prepare 1× Kinase Buffer. Test compounds were serially diluted in 5-fold gradients, and 250 nL of 100× final concentration compounds were transferred to destination plate 3573 using an Echo 550 liquid handler. A 2.5× final concentration kinase solution was prepared in 1× Kinase Buffer. Then, 10 µL of the 2.5× kinase solution was added to both compound wells and positive control wells, while 10 µL of 1× Kinase Buffer was added to negative control wells. The plate was centrifuged at 1000 rpm for 30 seconds, mixed by orbital shaking, and incubated at room temperature for 10 minutes. A 5/3× final concentration mixture of ATP and Kinase Substrate 25 was prepared in 1× Kinase Buffer. The reaction was initiated by adding 15 µL of the 5/3× ATP/substrate mixture. The 384-well plate was centrifuged at 1000 rpm for 30 seconds, mixed by shaking, and incubated at room temperature for 120 minutes. The kinase reaction was terminated by adding 30 µL stop solution, followed by centrifugation at 1000 rpm for 30 seconds and mixing. Conversion rates were measured using a Caliper EZ Reader. %Inhibition = (Conversion%_max - Conversion%_sample)/(Conversion%_max - Conversion%_min) × 100. Where: Conversion%_sample: Conversion rate reading of test samples; Conversion%_min: Mean value of negative control wells (representing conversion rate without enzyme activity); Conversion%_max: Mean value of positive control wells (representing conversion rate without compound inhibition). Dose-response curves were plotted with log(concentration) as the X-axis and percentage inhibition as the Y-axis. Curve fitting was performed using GraphPad Prism 5 software with the "log(inhibitor) vs. response - Variable slope" model to derive IC50 values for each compound's enzyme inhibitory activity. The fitting formula was: Y = Bottom + (Top - Bottom)/(1 + 10^((LogIC50 - X) × HillSlope)).

In another series the target is HPK1 kinase (Homo sapiens, UniProt Q92918). Nature of the series: HPK1 kinase activity inhibition assay (Mobility shift assay). It counts as biochemical. The method, then: Measure compound inhibitory activity against HPK1 kinase using Mobility shift assay. Compounds were dissolved in 100% DMSO to prepare 10 mM stock solutions. 1× Kinase buffer was prepared. Test compounds were serially diluted in 5-fold gradients, and 250 nL of 100× final concentration compounds were transferred to destination plate 3573 using an Echo 550 liquid handler. A 2.5× final concentration kinase solution was prepared in 1× Kinase Buffer. 10 µL of the 2.5× kinase solution was added to both compound wells and positive control wells, while 10 µL of 1× Kinase buffer was added to negative control wells. The plate was centrifuged at 1000 rpm for 30 seconds, mixed by orbital shaking, and incubated at room temperature for 10 minutes. A 5/3× final concentration mixture of ATP and Kinase substrate 25 was prepared in 1× Kinase buffer. 15 µL of the 5/3× ATP/substrate mixture was added to initiate the reaction. The 384-well plate was centrifuged at 1000 rpm for 30 seconds, mixed by shaking, and incubated at room temperature for 120 minutes. The kinase reaction was terminated by adding 30 µL stop solution, followed by centrifugation at 1000 rpm for 30 seconds and mixing. Conversion rates were measured using a Caliper EZ Reader. The inhibition percentage was calculated as: %Inhibition = (Conversion%_max - Conversion%_sample)/(Conversion%_max - Conversion%_min) × 100. Where Conversion%_sample: Conversion rate reading of test samples; Conversion%_min: Mean value of negative control wells (representing conversion rate without enzyme activity); Conversion%_max: Mean value of positive control wells (representing conversion rate without compound inhibition). Dose-response curves were plotted with log(concentration) as the X-axis and percentage inhibition as the Y-axis. Curve fitting was performed using GraphPad Prism 5 software with the "log(inhibitor) vs. response - Variable slope" model to derive IC50 values for each compound's enzyme inhibitory activity. The fitting formula was: Y = Bottom + (Top - Bottom)/(1 + 10^((LogIC50 - X) × HillSlope)).
Sequence of HPK1 kinase (Q92918 whole entry): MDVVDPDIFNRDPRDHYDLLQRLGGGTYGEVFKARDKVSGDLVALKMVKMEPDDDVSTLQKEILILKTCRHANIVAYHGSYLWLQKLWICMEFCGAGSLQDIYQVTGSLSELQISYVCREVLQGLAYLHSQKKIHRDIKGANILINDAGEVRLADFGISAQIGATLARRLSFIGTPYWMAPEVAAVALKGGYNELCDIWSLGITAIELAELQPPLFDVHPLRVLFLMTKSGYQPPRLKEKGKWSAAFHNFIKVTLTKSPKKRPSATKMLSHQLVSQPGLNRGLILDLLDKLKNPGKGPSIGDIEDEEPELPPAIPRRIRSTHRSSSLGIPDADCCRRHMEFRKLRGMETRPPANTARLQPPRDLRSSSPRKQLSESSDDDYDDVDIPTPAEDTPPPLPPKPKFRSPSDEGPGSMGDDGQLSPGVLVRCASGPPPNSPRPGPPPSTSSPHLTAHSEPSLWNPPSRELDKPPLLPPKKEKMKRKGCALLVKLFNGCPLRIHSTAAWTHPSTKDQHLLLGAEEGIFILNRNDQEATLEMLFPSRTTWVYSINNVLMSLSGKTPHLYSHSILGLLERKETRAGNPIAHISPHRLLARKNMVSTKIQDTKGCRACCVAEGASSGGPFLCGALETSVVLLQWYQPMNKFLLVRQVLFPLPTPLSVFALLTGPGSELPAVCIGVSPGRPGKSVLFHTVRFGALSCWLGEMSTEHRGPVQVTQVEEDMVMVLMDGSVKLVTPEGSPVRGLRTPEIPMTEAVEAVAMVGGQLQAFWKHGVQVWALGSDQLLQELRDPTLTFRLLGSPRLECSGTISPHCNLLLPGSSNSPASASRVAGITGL

For a further series, the target named is FAK kinase (Homo sapiens, UniProt Q05397). Nature of the series: FAK kinase activity inhibition assay, method A (HTRF) and method B (Lantha screen). The series is classed as biochemical. The method, then: The HTRF method was used to evaluate the inhibitory activity of the compounds against FAK kinase. […]. The reaction conditions were: FAK kinase at 0.1 ng/µL; ATP 10 µM; substrate concentration 1 µM. Compounds were serially diluted in DMSO and shaken on a shaker for 20 minutes. Prepare 2× kinase using 1× reaction buffer. Transfer 25 nL compound to a 384-well plate using Echo 655. Add 2.5 µL kinase per well. Seal the plate with sealing film, centrifuge at 1000 rpm for 60 seconds, and incubate at 25°C for 12 hours. Prepare 2× ATP/substrate mix using 1× enzyme reaction buffer and add 2.5 µL 2× ATP/substrate mix per well. Seal the plate with sealing film, centrifuge at 1000 rpm for 60 seconds, and incubate at 25°C for 50 minutes. Prepare 2×XL665 & antibody solution using HTRF detection buffer, and add 5 µL per well. Incubate at 25°C for 60 minutes. Read fluorescence at 620 nm (Cryptate) and 665 nm (XL665). Calculate the ratio per well (Ratio_665/620 nm). % Inhibition = 100% - [(Compound Ratio - Positive Control Ratio)/ (Negative Control Ratio - Positive Control Ratio)] × 100%. IC50 values (half-maximal inhibitory concentration) were calculated by nonlinear regression using GraphPad Prism 7.0. Y = Bottom + (Top - Bottom)/ (1 + 10^ ((LogIC50 - X) × Hill Slope)), where X is the log of compound concentration and Y is the % inhibition.
Sequence of FAK kinase (Q05397 whole entry): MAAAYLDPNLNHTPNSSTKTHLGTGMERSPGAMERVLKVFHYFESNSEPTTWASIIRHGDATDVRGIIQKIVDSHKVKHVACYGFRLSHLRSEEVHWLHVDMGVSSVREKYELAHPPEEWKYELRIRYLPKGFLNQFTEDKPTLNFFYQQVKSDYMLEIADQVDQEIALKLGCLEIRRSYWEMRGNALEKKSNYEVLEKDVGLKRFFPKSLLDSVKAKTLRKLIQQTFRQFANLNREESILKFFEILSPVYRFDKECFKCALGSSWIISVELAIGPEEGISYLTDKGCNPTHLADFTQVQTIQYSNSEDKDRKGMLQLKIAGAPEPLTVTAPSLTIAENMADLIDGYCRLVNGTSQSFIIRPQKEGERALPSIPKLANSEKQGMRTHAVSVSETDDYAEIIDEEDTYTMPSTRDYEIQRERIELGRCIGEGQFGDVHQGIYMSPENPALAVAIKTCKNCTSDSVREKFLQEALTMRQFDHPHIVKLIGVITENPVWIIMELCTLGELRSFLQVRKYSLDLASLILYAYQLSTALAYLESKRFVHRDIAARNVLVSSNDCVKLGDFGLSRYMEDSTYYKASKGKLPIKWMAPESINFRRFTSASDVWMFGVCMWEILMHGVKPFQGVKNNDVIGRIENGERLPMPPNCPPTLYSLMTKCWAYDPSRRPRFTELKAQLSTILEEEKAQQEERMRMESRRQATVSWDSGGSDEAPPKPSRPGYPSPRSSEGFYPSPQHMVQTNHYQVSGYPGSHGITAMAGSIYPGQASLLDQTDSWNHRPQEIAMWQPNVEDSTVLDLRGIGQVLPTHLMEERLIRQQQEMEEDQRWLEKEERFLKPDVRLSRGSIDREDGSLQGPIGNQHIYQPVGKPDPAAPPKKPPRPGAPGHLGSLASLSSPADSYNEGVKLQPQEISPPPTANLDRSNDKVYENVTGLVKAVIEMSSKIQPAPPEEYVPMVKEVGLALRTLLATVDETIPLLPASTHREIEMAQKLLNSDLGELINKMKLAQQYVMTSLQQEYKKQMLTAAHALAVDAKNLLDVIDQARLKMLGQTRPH
The Lantha screen assay was used to evaluate the FAK kinase inhibitory activity. Compounds were dissolved in 100% DMSO at 10 mM stock concentration. Prepare 1× kinase buffer (25 mM HEPES, pH 7.5, 0.01 mM Triton, 0.5 mM EGTA, 0.01% Brij-35). Dilute compounds in a gradient, and transfer 5 µL compound into the reaction plate. Prepare 2× kinase solution with 1× Kinase buffer. Add 5 µL kinase solution to compound and positive control wells, and 5 µL 1× Kinase buffer to negative control wells. Mix reaction plate by shaking. Prepare 4× ATP/Fluorescein-polyGT substrate mix with 1× Kinase buffer. Add 2.5 µL substrate solution to initiate the reaction. Shake and incubate at room temperature for 30 minutes. Prepare 2× detection reagent (2 nM antibody, 10 mM EDTA) and add 10 µL per well to stop the reaction. Briefly centrifuge, mix, and incubate for 60 minutes. Read fluorescence at 340 nm excitation and 520 nm/495 nm emission using EnVision. Collect data and calculate 520 nm/495 nm ratio. Calculate the inhibition percentage using the formula: % Inhibition = (Max - Sample Ratio)/(Max - Min) × 100, where min is the mean of negative control wells (no enzyme activity), and max is the mean of positive control wells (DMSO-inhibited conversion rate).Use XLFit Excel add-in version 5.4.0.8 to determine the IC50 values of each compound against the enzyme activity: Y = Bottom + (Top - Bottom)/(1 + (IC50/X)^HillSlope).

As for `CCc1cc2c(cc1Nc1ncc(C(F)(F)F)c(NCCCN3CCOCCC3=O)n1)OC[C@H]1CN(C3COC3)CCN21` [Compound A12R], in “in vivo”, the AUC(0-t) at 24 h is 1460 ng·h/mL, the peak level (Cmax) was 487 ng/mL, the Tmax was found to be 0.5 h and the half-life was 1.76 h.

As for `CNC(=O)c1ccccc1Nc1cc(Nc2cc3c(cc2OC)N2CCN(C4CCOCC4)C[C@@H]2CO3)ncc1C(F)(F)F` [Compound D1R], the IC50 is less than 30 nM on FLT3, less than 30 nM on HPK1 kinase and less than 3 nM at FAK kinase.
